# Source: US10005767B2, “Compositions and methods for inhibition of the JAK pathway” (Rigel Pharmaceuticals, Inc., priority 2009, dated 2018)
# Where a name gives a salt, the structure may show the parent alone. Read-outs that look alike come from different tables or passages of the source.
# Tested on: human primary T-cells, IL-2 stimulated proliferation (JAK-1 and JAK-3 dependent; reported as JAK3 activity)
# Assay: Human primary T-cell proliferation stimulated by IL-2 (Example 3)
# Assay type: cell-based
# Settings: tested under conditions described in Example 3 (IL-2 stimulated human primary T-cell proliferation), read-out: ability to inhibit JAK3 activity, IC50 range (Table V)
# Method in brief: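 Peripheral-blood human T-cells pre-activated via TCR/CD28, IL-2-starved overnight, then cultured 72 h at 37 °C with compound in Yssel's medium containing IL-2 (80 U/mL in cell suspension). Proliferation read as viable-cell ATP by CellTiter-Glo luminescence; reduction versus control taken as JAK pathway inhibition.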
SMILES,IC50 [nM],"IC50 (Homo sapiens, T-cell) [nM]"
"Cc1cnc(Nc2ccc(F)c(Cl)c2)nc1Nc1ccc2oc(=O)[nH]c2c1 [Compound I-399, N2-(3-chloro-4-fluoro)phenyl-5-methyl-N4-(2-oxo-2,3-dihydro-1,3-benzoxazol-5-yl)-2,4-pyrimidinediamine]",< 500,–
"Cc1cnc(Nc2ccc(Cl)c(F)c2)nc1Nc1ccc2oc(=O)[nH]c2c1 [Compound I-400, N2-(4-chloro-3-fluoro)phenyl-5-methyl-N4-(2-oxo-2,3-dihydro-1,3-benzoxazol-5-yl)-2,4-pyrimidinediamine]",< 500,–
"Cc1cnc(Nc2cc(F)cc(OC(F)F)c2)nc1Nc1ccc2oc(=O)[nH]c2c1 [Compound I-401, N2-(3-difluoromethoxy-5-fluoro)phenyl-5-methyl-N4-(2-oxo-2,3-dihydro-1,3-benzoxazol-5-yl)-2,4-pyrimidinediamine]",< 500,–
"Cc1cnc(Nc2cc(F)cc(OC(C)(C)C(N)=O)c2)nc1Nc1ccc2oc(=O)[nH]c2c1 [Compound I-402, N2-[3-(1-aminocarbonyl-1-methyl)ethoxy-5-fluoro]phenyl-5-methyl-N4-(2-oxo-2,3-dihydro-1,3-benzoxazol-5-yl)-2,4-pyrimidinediamine]",< 500,–
"Cc1cccc(Nc2ncc(C)c(Nc3ccc4oc(=O)[nH]c4c3)n2)c1 [Compound I-403, 5-(5-Methyl-2-m-tolylamino-pyrimidin-4-ylamino)-3H-benzooxazol-2-one]",–,< 500
"Cc1cnc(Nc2ccc(OCCCN(C)C)c(C(F)(F)F)c2)nc1Nc1ccc2oc(=O)[nH]c2c1 [Compound I-404, 5-{2-[4-(3-Dimethylamino-propoxy)-3-trifluoromethyl-phenylamino]-5-methyl-pyrimidin-4-ylamino}-3H-benzooxazol-2-one]",–,< 500
"Cc1cnc(Nc2cc(C)c(C)c(C)c2)nc1Nc1ccc2oc(=O)n(COP(=O)(OC(C)(C)C)OC(C)(C)C)c2c1 [Compound I-405, N4-{3-[bis(1,1-dimethylethoxy)]phosphinyloxymethyl-2-oxo-2,3-dihydro-1,3-benzoxazol-5-yl}-N2-(3,4,5-trimethyl)phenyl-5-methyl-2,4-pyrimidinediamine]",5000 to 10000,–
"Cc1cnc(Nc2cc(C)c(C)c(C)c2)nc1Nc1ccc2oc(=O)n(COP(=O)(O)O)c2c1 [Compound I-406, 5-methyl-N4-[3-(phosphonooxy)methyl-2-oxo-2,3-dihydro-1,3-benzoxazol-5-yl]-N2-(3,4,5-trimethyl)phenyl-2,4-pyrimidinediamine]",500 to 5000,–
"Cc1cnc(Nc2cc(F)c(F)c(F)c2)nc1Nc1ccc2oc(=O)[nH]c2c1 [Compound I-408, 5-methyl-N4-(2-oxo-2,3-dihydro-1,3-benzoxazol-5-yl)-N2-(3,4,5-trifluoro)phenyl-2,4-pyrimidinediamine]",< 500,–
"Cc1cnc(Nc2cc(F)c(C(F)(F)F)c(F)c2)nc1Nc1ccc2oc(=O)[nH]c2c1 [Compound I-415, N2-(3,5-difluoro-4-trifluoromethyl)phenyl-5-methyl-N4-(2-oxo-2,3-dihydro-1,3-benzoxazol-5-yl)-2,4-pyrimidinediamine]",< 500,–
"Cc1cnc(Nc2cc(F)cc(OC(C)(C)C#N)c2)nc1Nc1ccc2oc(=O)[nH]c2c1 [Compound I-416, N2-[3-(1-cyano-1-methyl)ethoxy-5-fluoro]phenyl-5-methyl-N4-(2-oxo-2,3-dihydro-1,3-benzoxazol-5-yl)-2,4-pyrimidinediamine]",< 500,–
"Cc1cnc(Nc2ccc(F)c(OC(C)(C)C#N)c2)nc1Nc1ccc2oc(=O)[nH]c2c1 [Compound I-417, N2-[3-(1-cyano-1-methyl)ethoxy-4-fluoro]phenyl-5-methyl-N4-(2-oxo-2,3-dihydro-1,3-benzoxazol-5-yl)-2,4-pyrimidinediamine]",< 500,–
"Cc1cnc(Nc2ccc(Cl)c(OC(F)F)c2)nc1Nc1ccc2oc(=O)[nH]c2c1 [Compound I-418, N2-(4-chloro-3-difluoromethoxy)phenyl-5-methyl-N4-(2-oxo-2,3-dihydro-1,3-benzoxazol-5-yl)-2,4-pyrimidinediamine]",< 500,–
"Cc1cnc(Nc2ccc(C(C)C)cc2)nc1Nc1ccc2oc(=O)[nH]c2c1 [Compound I-419, 5-(2-(4-isopropylphenylamino)-5-methylpyrimidin-4-ylamino)benzo[d]oxazol-2(3H)-one]",–,< 500
"Cc1cnc(Nc2ccc(C(C)(C)C)cc2)nc1Nc1ccc2oc(=O)[nH]c2c1 [Compound I-420, 5-(2-(4-tert-butylphenylamino)-5-methylpyrimidin-4-ylamino)benzo[d]oxazol-2(3H)-one]",–,< 500
"Cc1ccc(Nc2ncc(C)c(Nc3ccc4oc(=O)[nH]c4c3)n2)cc1 [Compound I-421, 5-(2-(p-toluidino)-5-methylpyrimidin-4-ylamino)benzo[d]oxazol-2(3H)-one]",–,< 500
"COc1ccc(Nc2ncc(C)c(Nc3ccc4oc(=O)[nH]c4c3)n2)cc1COC(C)C [Compound I-422, 5-(2-(3-(isopropoxymethyl)-4-methoxyphenylamino)-5-methylpyrimidin-4-ylamino)benzo[d]oxazol-2(3H)-one]",–,< 500

SMILES,IC50 [nM],"IC50 (Homo sapiens, T-cell) [nM]"
"COc1cc(Nc2ncc(C)c(Nc3ccc4oc(=O)[nH]c4c3)n2)cc(C(C)O)c1 (stereo not shown) [Compound I-423, 5-(2-(3-(1-hydroxyethyl)-5-methoxyphenylamino)-5-methylpyrimidin-4-ylamino)benzo[d]oxazol-2(3H)-one]",–,< 500
"Cc1cnc(Nc2ccc(O)c(Cl)c2)nc1Nc1ccc2oc(=O)[nH]c2c1 [Compound I-424, 5-[2-(3-Chloro-4-hydroxy-phenylamino)-5-methyl-pyrimidin-4-ylamino]-3H-benzooxazol-2-one]",–,< 500
"Cc1cnc(Nc2ccc(O)cc2)nc1Nc1ccc2oc(=O)[nH]c2c1 [Compound I-425, 5-[2-(4-Hydroxy-phenylamino)-5-methyl-pyrimidin-4-ylamino]-3H-benzooxazol-2-one]",–,< 500
"Cc1cnc(Nc2ccc(OCCN(C)C)cc2)nc1Nc1ccc2oc(=O)[nH]c2c1 [Compound I-426, 5-{2-[4-(2-Dimethylamino-ethoxy)-phenylamino]-5-methyl-pyrimidin-4-ylamino}-3H-benzooxazol-2-one]",–,< 500
"COc1cc(Nc2ncc(C)c(Nc3cc(C)c4oc(=O)[nH]c4c3)n2)cc(C(F)(F)F)c1 [Compound I-427, 5-(2-(3-methoxy-5-(trifluoromethyl)phenylamino)-5-methylpyrimidin-4-ylamino)-7-methylbenzo[d]oxazol-2(3H)-one]",–,> 10000
"COc1cc(C)cc(Nc2ncc(C)c(Nc3cc(C)c4oc(=O)[nH]c4c3)n2)c1 [Compound I-428, 5-(2-(3-methoxy-5-methylphenylamino)-5-methylpyrimidin-4-ylamino)-7-methylbenzo[d]oxazol-2(3H)-one]",–,< 500
"COc1ccc(Nc2ncc(C)c(Nc3cc(C)c4oc(=O)[nH]c4c3)n2)cc1C [Compound I-429, 5-(2-(4-methoxy-3-methylphenylamino)-5-methylpyrimidin-4-ylamino)-7-methylbenzo[d]oxazol-2(3H)-one]",–,< 500
"COc1cc(C)cc(Nc2ncc(C)c(Nc3cc(F)c4oc(=O)[nH]c4c3)n2)c1 [Compound I-430, 7-fluoro-5-(2-(3-methoxy-5-methylphenylamino)-5-methylpyrimidin-4-ylamino)benzo[d]oxazol-2(3H)-one]",–,< 500
"COc1ccc(Nc2ncc(C)c(Nc3cc(F)c4oc(=O)[nH]c4c3)n2)cc1C [Compound I-431, 7-fluoro-5-(2-(4-methoxy-3-methylphenylamino)-5-methylpyrimidin-4-ylamino)benzo[d]oxazol-2(3H)-one]",–,< 500
"COc1cc(Nc2ncc(C)c(Nc3ccc4oc(=O)[nH]c4c3)n2)cc(C)c1F [Compound I-432, 5-(2-(4-fluoro-3-methoxy-5-methylphenylamino)-5-methylpyrimidin-4-ylamino)benzo[d]oxazol-2(3H)-one]",–,< 500
"Cc1cnc(Nc2ccc(OC(F)F)c(CF)c2)nc1Nc1ccc2oc(=O)[nH]c2c1 [Compound I-433, 5-(2-(4-(difluoromethoxy)-3-(fluoromethyl)phenylamino)-5-methylpyrimidin-4-ylamino)benzo[d]oxazol-2(3H)-one formate salt]",–,< 500
"Cc1cnc(Nc2ccc(C#N)c(OC(F)F)c2)nc1Nc1ccc2oc(=O)[nH]c2c1 [Compound I-434, N2-(4-cyano-3-difluoromethoxy)phenyl-5-methyl-N4-(2-oxo-2,3-dihydro-1,3-benzoxazol-5-yl)-2,4-pyrimidinediamine]",< 500,–
"Cc1cnc(Nc2ccc(F)c(OC(F)F)c2)nc1Nc1ccc2oc(=O)[nH]c2c1 [Compound I-435, N2-(3-difluoromethoxy-4-fluoro)phenyl-5-methyl-N4-(2-oxo-2,3-dihydro-1,3-benzoxazol-5-yl)-2,4-pyrimidinediamine]",< 500,–
"Cc1ccc(Nc2ncc(C)c(Nc3ccc4oc(=O)[nH]c4c3)n2)cc1C(F)F [Compound I-438, 5-(2-(3-(difluoromethyl)-4-methylphenylamino)-5-methylpyrimidin-4-ylamino)benzo[d]oxazol-2(3H)-one]",–,< 500
"Cc1ccc(Nc2ncc(C)c(Nc3ccc4oc(=O)[nH]c4c3)n2)cc1CF [Compound I-439, 5-(2-(3-(fluoromethyl)-4-methylphenylamino)-5-methylpyrimidin-4-ylamino)benzo[d]oxazol-2(3H)-one]",–,< 500
"Cc1cnc(Nc2ccc(OC(F)F)c(C(F)F)c2)nc1Nc1ccc2oc(=O)[nH]c2c1 [Compound I-442, 5-(2-(4-(difluoromethoxy)-3-(difluoromethyl)phenylamino)-5-methylpyrimidin-4-ylamino)benzo[d]oxazol-2(3H)-one formate salt]",–,< 500
"Cc1ccc(Nc2ncc(C)c(Nc3ccc4oc(=O)[nH]c4c3)n2)cc1-c1ccncc1 [Compound I-443, 5-(5-methyl-2-(4-methyl-3-(pyridin-4-yl)phenylamino)pyrimidin-4-ylamino)benzo[d]oxazol-2(3H)-one]",–,< 500
